This is an account of results in patent US20100311714A1, “1H-IMIDAZO[4,5-c]QUINOLINONE COMPOUNDS” (priority 2009, published 2010).

The target in the assay is T1, PI3K gamma (Homo sapiens, UniProt P48736).
T1 construct: His tag (C); made in house; host or cells: construct from Roger Williams lab (pVL1393); baculovirus BV950; Tn5 (Trichoplusia ni) or TiniPro insect cells
T1 sequence (P48736 144-1102 limits assumed): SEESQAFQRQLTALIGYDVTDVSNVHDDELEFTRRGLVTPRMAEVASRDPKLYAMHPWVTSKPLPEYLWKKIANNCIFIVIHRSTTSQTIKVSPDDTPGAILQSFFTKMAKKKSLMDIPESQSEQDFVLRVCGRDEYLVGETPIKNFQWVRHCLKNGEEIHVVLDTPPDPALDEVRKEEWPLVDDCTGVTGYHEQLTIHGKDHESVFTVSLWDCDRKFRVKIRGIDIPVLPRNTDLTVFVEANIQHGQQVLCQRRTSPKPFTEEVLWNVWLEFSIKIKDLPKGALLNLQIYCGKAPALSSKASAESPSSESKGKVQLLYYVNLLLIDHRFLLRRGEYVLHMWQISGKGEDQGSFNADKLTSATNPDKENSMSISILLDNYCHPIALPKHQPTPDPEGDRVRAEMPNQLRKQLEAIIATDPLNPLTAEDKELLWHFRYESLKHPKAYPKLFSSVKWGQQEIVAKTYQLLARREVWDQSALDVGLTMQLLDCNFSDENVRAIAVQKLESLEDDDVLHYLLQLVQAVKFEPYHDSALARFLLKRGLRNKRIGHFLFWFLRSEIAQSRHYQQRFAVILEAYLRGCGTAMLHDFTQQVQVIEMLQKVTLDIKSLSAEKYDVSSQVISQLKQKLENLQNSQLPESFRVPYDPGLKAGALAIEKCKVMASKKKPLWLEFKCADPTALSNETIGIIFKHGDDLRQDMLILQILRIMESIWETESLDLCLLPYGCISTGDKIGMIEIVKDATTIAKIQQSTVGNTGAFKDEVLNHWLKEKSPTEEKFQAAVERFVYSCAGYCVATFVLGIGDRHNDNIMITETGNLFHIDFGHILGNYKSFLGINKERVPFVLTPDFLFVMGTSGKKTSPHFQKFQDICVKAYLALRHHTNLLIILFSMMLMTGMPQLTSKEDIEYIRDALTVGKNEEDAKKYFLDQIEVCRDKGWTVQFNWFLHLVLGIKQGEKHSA
As to the kind of experiment: PI3K gamma kinase assay (Kinase-Glo luminescence). It counts as biochemical. The following applies: read-out: PI3Kgamma/IC50. The procedure:
In a more preferred assay, the kinase reaction is performed in a final volume of 10 μL per well of a low volume non binding CORNING, 384 well black plate (Cat. No. #3676). The final concentrations of ATP and phosphatidyl inositol (PI) in the assay are 1 μM and 10 μg/mL respectively. The reaction is started by the addition of ATP.
The components of the assay are added per well as follows:
50 nL test compounds in 90% DMSO per well, in columns 1-20, 8 concentrations (⅓ and 1/3.33 serial dilution step) in single. • Low control: […] of 90% DMSO in half the wells of columns 23-24 (0.45% in final). • High control: 50 nL of reference compound (e.g. compound of Example 7 in WO 2006/122806) in the other half of columns 23-24 (2.5 μM in final). • Standard: 50 nL of reference compound as just mentioned diluted as the test compounds in columns 21-22 • 20 mL ‘buffer’ are prepared per assay: • 200 μL of 1M TRIS HCl pH7.5 (10 mM in final) • 60 μL of 1M MgCl2 (3 mM in final) • 500 μL of 2M NaCl (50 mM in final) • 100 μL of 10% CHAPS (0.05% in final) • 200 μL of 100 mM DTT (1 mM in final) • 18.94 mL of nanopure water • 10 mL ‘PI’ are prepared per assay: • 200 μL of 1 mg/ml L-alpha-Phosphatidylinositol (Liver Bovine, Avanti Polar Lipids Cat. No. 840042C MW=909.12) prepared in 3% OctylGlucoside (10 μg/ml in final) • 9.8 mL of ‘buffer’ • 10 mL ‘ATP’ are prepared per assay: • 6.7 μL of 3 mM stock of ATP giving a final concentration of 1 μM per well • 10 mL of ‘buffer’ • 2.5 mL of each PI3K construct are prepared per assay in ‘PI’ with the following final concentration: • 10 nM PI3K alfa EMV B1075 • 25 nM beta EMV BV949 • 10 nM delta EMV BV1060 • 150 nM gamma EMV BV950 • 5 μL of ‘PI/PI3K’ are added per well. • 5 μl ‘ATP’ are added per well to start the reaction. • The plates are then incubated at room temperature for 60 minutes (alfa, beta, delta) or 120 minutes (gamma). • The reaction is terminated by the addition of 10 μL Kinase-Glo (Promega Cat. No. #6714). • The assay plates are read after 10 minutes in Synergy 2 reader (BioTek, Vermont USA) with an integration time of 100 milliseconds and sensitivity set to 191. • Output: The High control is around 60′000 counts and the Low control is 30′000 or lower • This luminescence assay gives a useful Z′ ratio between 0.4 and 0.7
PI3K gamma is purified in two chromatographic steps: immobilized metal affinity chromatography (IMAC) on a Ni Sepharose resin (GE Healthcare) and gel filtration (GFC) utilizing a Superdex 200 26/60 column (GE Healthcare). All buffers are chilled to 4° C. and lysis is performed chilled on ice. Column fractionation is performed rapidly at room temperature. Typically frozen insect cells are lysed in a hypertonic lysis buffer and applied to a prepared IMAC column. The resin is washed with 3-5 column volumes of lysis buffer, followed by 3-5 column volumes wash buffer containing 45 mM imidazole, and the target protein is then eluted with a buffer containing 250 mM imidazole. Fractions are analyzed by Coomassie stained SDS-PAGE gels, and fractions containing target protein are pooled and applied to a prepared GFC column. Fractions from the GFC column are analyzed by Coomassie stained SDS-PAGE gels, and fractions containing target protein are pooled. The final pool is dialyzed into a storage buffer containing 50% glycerol and stored at −20° C. The final pool is assayed for activity in the phosphoinostitol kinase assay.
IC50 is determined by a four parameter curve fitting routine that comes along with “excel fit”. A 4 Parameter logistic equation is used to calculate IC50 values (IDBS XLfit) of the percentage inhibition of each compound at 8 concentrations (usually 10, 3.0, 1.0, 0.3, 0.1, 0.030, 0.010 and 0.003 μM). Alternatively, IC50 values are calculated using idbsXLfit model 204, which is a 4 parameter logistic model.
For `COc1ncccc1-n1c(=O)n(C)c2cnc3ccc(-c4cnc5[nH]ccc5c4)cc3c21` [Example 1.2, 1-(2-Methoxy-pyridin-3-yl)-3-methyl-8-(1H-pyrrolo[2,3-b]pyridin-5-yl)-1,3-dihydro-imidazo[4,5-c]quinolin-2-one], the IC50 was determined as 168 nM.
In the case of `COc1ncccc1-n1c(=O)n(C)c2cnc3ccc(-c4ccc(C(N)=O)cc4)cc3c21` [Example 1.6, 4-[1-(2-Methoxy-pyridin-3-yl)-3-methyl-2-oxo-2,3-dihydro-1H-imidazo[4,5-c]quinolin-8-yl]-benzamide], the IC50 was 120 nM.
The result for `Cc1ncccc1-n1c(=O)n(C)c2cnc3ccc(-c4ccc(C(N)=O)cc4)cc3c21` [Example 2.3, 4-[3-Methyl-1-(2-methyl-pyridin-3-yl)-2-oxo-2,3-dihydro-1H-imidazo[4,5-c]quinolin-8-yl]-benzamide] reads 230 nM.
Turning to `Cc1ncccc1-n1c(=O)n(C)c2cnc3ccc(-c4ccc(CO)nc4)cc3c21` [Example 2.6, 8-(6-Hydroxymethyl-pyridin-3-yl)-3-methyl-1-(2-methyl-pyridin-3-yl)-1,3-dihydro-imidazo[4,5-c]quinolin-2-one], the IC50 is 913 nM.
For `Cc1ncccc1-n1c(=O)n(C)c2cnc3ccc(-c4ccc(N)nc4)cc3c21` [Example 2.7, 8-(6-Amino-pyridin-3-yl)-3-methyl-1-(2-methyl-pyridin-3-yl)-1,3-dihydro-imidazo[4,5-c]quinolin-2-one], the IC50 came to 388 nM.
Take `COc1ccc(-c2ccc3ncc4c(c3c2)n(-c2cccnc2C)c(=O)n4C)cc1OC` [Example 2.9, 8-(3,4-Dimethoxy-phenyl)-3-methyl-1-(2-methyl-pyridin-3-yl)-1,3-dihydro-imidazo[4,5-c]quinolin-2-one]: the IC50 is 126 nM.
Regarding `Cc1ncccc1-n1c(=O)n(C)c2cnc3ccc(-c4cnc(N)c(C(F)(F)F)c4)cc3c21` [Example 2.11, 8-(6-Amino-5-trifluoromethyl-pyridin-3-yl)-3-methyl-1-(2-methyl-pyridin-3-yl)-1,3-dihydro-imidazo[4,5-c]quinolin-2-one], the IC50 is 124 nM.
`COc1ccc(-c2ccc3ncc4c(c3c2)n(-c2cccnc2C)c(=O)n4C)cn1` [Example 2.12, 8-(6-Methoxy-pyridin-3-yl)-3-methyl-1-(2-methyl-pyridin-3-yl)-1,3-dihydro-imidazo[4,5-c]quinolin-2-one]: the IC50 worked out at 242 nM.
For the molecule `CNc1ccc(-c2ccc3ncc4c(c3c2)n(-c2cccnc2C)c(=O)n4C)cn1` [Example 2.13, 3-Methyl-8-(6-methylamino-pyridin-3-yl)-1-(2-methyl-pyridin-3-yl)-1,3-dihydro-imidazo[4,5-c]quinolin-2-one], the IC50 stood at 195 nM.
With `Cc1cccnc1-n1c(=O)n(C)c2cnc3ccc(-c4ccc(C(N)=O)cc4)cc3c21` [Example 3.3, 4-[3-Methyl-1-(3-methyl-pyridin-2-yl)-2-oxo-2,3-dihydro-1H-imidazo[4,5-c]quinolin-8-yl]-benzamide], the IC50 is 322 nM.
As for `CNc1ncc(-c2ccc3ncc4c(c3c2)n(-c2ncccc2C)c(=O)n4C)cn1` [Example 3.4, 3-Methyl-8-(2-methylamino-pyrimidin-5-yl)-1-(3-methyl-pyridin-2-yl)-1,3-dihydro-imidazo[4,5-c]quinolin-2-one], the figure is 386 nM; as for `CNC(=O)c1ccc(-c2ccc3ncc4c(c3c2)n(-c2ncccc2C)c(=O)n4C)cc1` [Example 3.5, N-Methyl-4-[3-methyl-1-(3-methyl-pyridin-2-yl)-2-oxo-2,3-dihydro-1H-imidazo[4,5-c]quinolin-8-yl]-benzamide], 434 nM.
On to `CCOc1ccc(-c2ccc3ncc4c(c3c2)n(-c2ncccc2C)c(=O)n4C)cn1` [Example 3.6, 8-(6-Ethoxy-pyridin-3-yl)-3-methyl-1-(3-methyl-pyridin-2-yl)-1,3-dihydro-imidazo[4,5-c]quinolin-2-one], for which the IC50 turned out to be 522 nM.
Turning to `COc1ccc(-c2ccc3ncc4c(c3c2)n(-c2ncccc2C)c(=O)n4C)cc1OC` [Example 3.10, 8-(3,4-Dimethoxy-phenyl)-3-methyl-1-(3-methyl-pyridin-2-yl)-1,3-dihydro-imidazo[4,5-c]quinolin-2-one], the IC50 was found to be 307 nM.
Regarding `Cc1cccnc1-n1c(=O)n(C)c2cnc3ccc(-c4ccc(N(C)C)nc4)cc3c21` [Example 3.11, 8-(6-Dimethylamino-pyridin-3-yl)-3-methyl-1-(3-methyl-pyridin-2-yl)-1,3-dihydro-imidazo[4,5-c]quinolin-2-one], the IC50 is 846 nM.
On to `Cc1cccnc1-n1c(=O)n(C)c2cnc3ccc(-c4cnc(N)c(C(F)(F)F)c4)cc3c21` [Example 3.12, 8-(6-Amino-5-trifluoromethyl-pyridin-3-yl)-3-methyl-1-(3-methyl-pyridin-2-yl)-1,3-dihydro-imidazo[4,5-c]quinolin-2-one], for which the IC50 came to 202 nM.
The result for `CCOc1ccc(-c2ccc3ncc4c(c3c2)n(-c2cnccc2C)c(=O)n4C)cn1` [Example 4.2, 8-(6-Ethoxy-pyridin-3-yl)-3-methyl-1-(4-methyl-pyridin-3-yl)-1,3-dihydro-imidazo[4,5-c]quinolin-2-one] reads 546 nM; that for `COc1ccc(-c2ccc3ncc4c(c3c2)n(-c2cnccc2C)c(=O)n4C)cn1` [Example 4.3, 8-(6-Methoxy-pyridin-3-yl)-3-methyl-1-(4-methyl-pyridin-3-yl)-1,3-dihydro-imidazo[4,5-c]quinolin-2-one], 439 nM.
The result for `Cn1c(=O)n(-c2cccnc2)c2c3cc(-c4ccc(CO)nc4)ccc3ncc21` [Example 5.1, 8-(6-Hydroxymethyl-pyridin-3-yl)-3-methyl-1-pyridin-3-yl-1,3-dihydro-imidazo[4,5-c]quinolin-2-one] reads 943 nM; that for `CN(C)c1ccc(-c2ccc3ncc4c(c3c2)n(-c2cccnc2)c(=O)n4C)cn1` [Example 5.3, 8-(6-Dimethylamino-pyridin-3-yl)-3-methyl-1-pyridin-3-yl-1,3-dihydro-imidazo[4,5-c]quinolin-2-one], 362 nM; that for `CCOc1ccc(-c2ccc3ncc4c(c3c2)n(-c2cccnc2F)c(=O)n4C)cn1` [Example 6.1, 8-(6-Ethoxy-pyridin-3-yl)-1-(2-fluoro-pyridin-3-yl)-3-methyl-1,3-dihydro-imidazo[4,5-c]quinolin-2-one], 206 nM.
The result for `Cn1c(=O)n(-c2cccnc2F)c2c3cc(-c4cnc(N)c(C(F)(F)F)c4)ccc3ncc21` [Example 6.2, 8-(6-Amino-5-trifluoromethyl-pyridin-3-yl)-1-(2-fluoro-pyridin-3-yl)-3-methyl-1,3-dihydro-imidazo[4,5-c]quinolin-2-one] reads 139 nM.
